Values quoted from earlier work as cited in patent US20190114390A1, “DRUG REPURPOSING BASED ON DEEP EMBEDDINGS OF GENE EXPRESSION PROFILES” (BioAge Labs, Inc., priority 2017, published 2019).

Legend:
[1] = known property
[2] = tested on: imidazole I-2 receptors; conditions: known property

SMILES | effect on glucose levels [1] | effect upon imidazole I-2 receptors [2]
CN(C)C(=N)N=C(N)N [Metformin, metformin] | lower glucose levels | direct inhibitory effect upon imidazole I-2 receptors
NC(=O)NC1NC(=O)NC1=O (stereo not shown) [allantoin] | lowers glucose levels | direct inhibitory effect upon imidazole I-2 receptors
